The conditions of data set [1]: healthy test persons, single dose 0.15 mg/kg i.v., cited from earlier work.
For data set [2] the following is noted: humans; cited from earlier work.
The conditions of data set [3]: after oral administration; cited from earlier work.
For data set [4], the system named is nausea and emesis. The following applies: cited from earlier work.
The conditions of data set [5]: cited from earlier work.
Data set [6] in a line: in vitro skin permeation through the skin of a nude mouse.
Excerpt: All employed solutions are saturated.
The given values are average values which were obtained with saturated solutions.
Saturated solutions were used to achieve the respective maximal thermodynamic activities.
For data set [7] the following is noted: diffusion cell, cited from earlier work.

Where a name gives a salt, the structure may show the parent alone. Read-outs that look alike come from different tables or passages of the source.

Regarding `Cc1nccn1CC1CCc2c(c3ccccc3n2C)C1=O` (racemic) [ondansetron, (±)-1,2,3,9-tetrahydro-9-methy-3-[(2-methyl-1H-imidazole-1-yl)methyl]-4H-carbazol-4-one monohydrochloride], in data set [1] (age group 19-40 years), the average half-life is listed as 3.5 h, the peak concentration in plasma was 102 ng/mL and the plasma clearance was 6.33 mL/min/kg. For the same compound, in data set [1] (age group 61-74 years), the average half-life is reported as 4.7 h and the plasma clearance was 5.33 mL/min/kg. Further, in data set [1] (age group ≧75 years), the average half-life is given as 5.5 h and the plasma clearance was 4.33 mL/min/kg. In data set [2], the “part of a radioactively marked dose found in urine” value was “approximately 5%”. Further, the bioavailability result in data set [3] is “approximately 50%”. Further, in data set [4] (patients treated with anti-tumor drugs such as cisplatin derivatives), the “treatment of nausea and emesis” value was “reliable in treating nausea and emesis”. Moreover, the side effects entry in data set [4] (patients) was “headaches, diarrhea, and temporary abnormalities in liver function tests”.
Regarding `Cc1nccn1CC1CCc2c(c3ccccc3n2C)C1=O` (centres unmarked) [ondansetron hydrochloride], the “time until peak concentrations are present in the plasma” value in data set [5] (after oral administration) is reported as “Approximately 1 hour”. Besides, the average elimination half-life was 3.5 h in data set [5] (healthy test persons) and “approximately 7.9 hours” in data set [5] (older patients). The “permeation compared with the free base” value in data set [6] (in combination with the described solvent mixture) was “permeates better than ondansetron in the form of the free, non-ionic base”. Further, in data set [6] (mixture of ethanol, tea tree oil and water vs saturated aqueous solution, after 24 hours), the “amount permeated relative to a saturated aqueous solution” value is “approximately 12 times”. The “permeation through the skin (FIG. 2)” value in data set [6] (saturated aqueous solution) is listed as “the results do not differ from those which were obtained using pure tea tree oil”. Further, the “permeation through the skin (FIG. 1)” value in data set [6] (saturated solution in ethanol) is “best permeation”; in data set [6] (saturated solution in tea tree oil alone), “insufficient permeation”. Further, the amount permeated entry in data set [6] (solution in a mixture of ethanol, tea tree oil and water, after 24 hours) is on record as “approximately 1.2 mg per cm^2”. Also, the “flow of the active agent (FIG. 2)” value in data set [6] (solution in a mixture of ethanol, tea tree oil and water, first 4 to 5 hours) is given as “extremely strong increase”.
For `Cc1cccc(CN2CCN(C)C[C@@H](NC(=O)c3n[nH]c4ccccc34)C2)c1.Cl.Cl` [(R)-(−)-N-(1-methyl-4-(3-methylbenzyl)hexahydro-1H-1,4-diazepin-6-yl)-1H-indazole-3-carboxamided.2HCl], the “flow of the active agent through the human epidermis” value is recorded as 0.8 μg/cm^2/h in data set [7] (adhesive matrix of styrene-butadiene copolymer used as a comparison) and 17.1 μg/cm^2/h in data set [7] (two-phase matrix with 4 % active agent, calcium silicate, dimethyl siloxane adhesive (WO 9407468)).

Source of the values: patent US6440453B1, “Transdermal systems for release of 5-HT3 receptor antagonists and their use in anti-emetic treatment” (Novosis Pharma AG, priority 1999, dated 2002).
